Test results: patent publication US10281463B2, “Methods of determining cellular phenotypes” (Technion Research & Development Foundation Limited, priority 2015, dated 2019)

Tests used:
[1] = test system: E. coli; experiment: E. coli colonization of SiPA as a function of surface functionality (rate of EOT shift); type: cell-based; conditions: FIG. 12A
Method: The method includes the continuous or rapid serial monitoring of the light interferometry spectra obtained from a surface with reflective periodic topography (PRT), prior, during and following the controlled introduction of bacterial suspensions to it and/or addition of drugs/substances. Said interferometry spectra is analyzed (for example by fast Fourier transform) to reveal the rate of optical shift, e.g., the time-dependent alterations in the reflected light properties of said PRT, inflicted by the behavior of the cells (for example settling, adhering, migrating or proliferating).
Types of optical kinetic profiles made by bacterial cells on photonic microarrays diffraction grating (e.g., SiPA) include, without limitation, • 1. Bacteria cells are seeded into the pores/structures. Full growth media is supplied to the cells until a growth curve is established. • a. An anti-proliferation drug (bacteriostatic/antibiotics) is added to the media (see FIG. 7) and the correlation of EOT growth curve and drug concentration is analyzed. The MIC (minimal inhibitory concentration) is determined when the EOT shift becomes null. • b. […] If the suspension contains an anti-attachment drug/factor that will affect pore/structure colonization, then correlation of EOT curve and drug concentration can be analyzed (see FIG. 10). • b. […]

[2] = test system: E. coli; experiment: Antibiotic susceptibility testing of E. coli growth on photonic microarrays diffraction grating (relative EOT shift over time); type: cell-based; conditions: for Cross comparison of antibiotic effect at the same concentration (type of effect): 5 μg/mL of respective antibiotic, E. coli, FIG. 17; for MIC: Escherichia coli, E. coli proliferation on photonic microarrays diffraction grating, antibiotic introduced at time 0 at increasing concentrations, read-out: MIC (minimal inhibitory concentration) observed from EOT growth curves
From the text: A SiPA placed in a flow-device having an inlet and an outlet. […] Fluid containing bacteria is introduced through the inlet. Light reflected from the top and bottom of the pores is collected by the optical setup. The phase delay between the incident and the reflected light beams is proportional to the depth (L) of the pores, and the refractive index of the medium filling the pores. The presence of bacterial cells in the pores increase the refractive index of the pores. Thus, the phase delay of the reflected light in the presence of the bacteria differs from the phase delay of the reflected light in the absence of the bacteria, so that analysis of the light collected by the optical setup can provide indication regarding the phenotype of the cells.
The FFT provides the value (2 nL), where L is the average depth of the pores and n is their refractive index. This quantity is also referred to as the Effective Optical Thickness (EOT). The measured shift in the EOT value is a function of the change in the refraction index of the pole: ΔEOT/EOT0=2(Δn/n0)L, where n0 is the refractive index of the pores before the introduction of the bacteria into the pores, Δn is the change in the refractive index as a result of the introduction of the cells into the compartments, and EOT0 is the EOT before introducing the cells into the compartments. Δn is thus correlated with the pore's volume fraction occupied by bacteria cells.
Types of optical kinetic profiles made by bacterial cells on photonic microarrays diffraction grating (e.g., SiPA) include, without limitation, • 1. Bacteria cells are seeded into the pores/structures. Full growth media is supplied to the cells until a growth curve is established. • a. An anti-proliferation drug (bacteriostatic/antibiotics) is added to the media (see FIG. 7) and the correlation of EOT growth curve and drug concentration is analyzed. The MIC (minimal inhibitory concentration) is determined when the EOT shift becomes null. • b. If the drug is later remove from the media (see FIG. 8), the cell growth may resume, if the drug effect is reversible. • c. If the drug is bactericidal or its bacteriostatic effect is irreversible, then the EOT curve will retract as dead cells disintegrate and exit the pores (see FIG. 8). • d. If the growth media if deficient with critical nutrient or factor, then EOT growth curve will decline in relation to the deficiency (see FIG. 9). • 2. Bacteria suspension is introduced to the photonic microarrays diffraction grating under constant flow conditions, in salt buffer solution. • a. If the suspension contains an anti-attachment drug/factor that will affect pore/structure colonization, then correlation of EOT curve and drug concentration can be analyzed (see FIG. 10). • b. Once a stable EOT curve is established, the bacteria suspension is replaced with clean buffer to challenge the bacteria adhesion. If cells are rinsed out of the pores, EOT plot will retract (see FIG. 11).

Row | Molecule | MIC [2] [µg/mL] | Effect of WGA ligand in the suspension on WGA-improved colonization ([1]; NAG incorporated in the E. coli suspension, WGA-coated SiPA) | Cross comparison of antibiotic effect at the same concentration (type of effect) [2] | Improvement of E. Coli colonization over neat SiO2 or albumin ([1]; SiPA coated with WGA) [times]
1 | CC(=O)N[C@@H]1[C@@H](O)[C@H](O)[C@@H](CO)O[C@@H]1O [NAG] |  | completely eliminate this effect |  | 
2 | Wheat-germ agglutinin [WGA] |  |  |  | 5
3 | CO/N=C(\C(=O)N[C@@H]1C(=O)N2C(C(=O)O)=C(CSc3nc(=O)c(=O)[nH]n3C)CS[C@H]12)c1csc(N)n1 [Ceftriaxone Sodium] | 0.005 to 0.05 |  | bactericidal | 

Second part, led by results:

Row | MIC [2] [µg/mL] | Molecule | Effect of WGA ligand in the suspension on WGA-improved colonization ([1]; NAG incorporated in the E. coli suspension, WGA-coated SiPA) | Cross comparison of antibiotic effect at the same concentration (type of effect) [2] | Improvement of E. Coli colonization over neat SiO2 or albumin ([1]; SiPA coated with WGA) [times]
4 | 0.005 to 0.05 | O=C(O)c1cn(C2CC2)c2cc(N3CCNCC3)c(F)cc2c1=O [Ciprofloxacin] |  | bacteriostatic | 
5 | 5 to 50 | COc1cc(Cc2cnc(N)nc2N)cc(OC)c1OC [Trimethoprim] |  | below the MIC concentration | 
